In patent US12240921B2, “Peptides” (priority 2022, dated 2025):
Starred links: 1 amine or outer side, 2 acyl side, 3 side chain; linkers in the order of their positions; H or OH if unused. Groups on a side chain read outwards from the residue. No end group written: not given here. *: point of attachment. C18 diacid = O=C(O)CCCCCCCCCCCCCCCCC(=O)*; γGlu = O=C(O)[C@H](CCC(=O)[*:2])N[*:1]; AEEA = NCCOCCOCC(=O)O

How the values were obtained:
Wistar Kyoto rats = assay: Wistar Kyoto (WKY) rat model of depression: EEG/EMG sleep-wake recording; type: in vivo; details: single injection, 0-3 h post dosing
Method: Ketamine (10 mg/kg), a N-methyl-D-aspartate-receptor antagonist, was used as positive control. All rats received all treatments 2 h after light onset in a pseudo randomized crossover fashion with a minimum period of 3 days between treatments. The rats were placed individually in recording boxes, and sleep-wake behaviour was recorded for 24 h. EEG/EMG signals were amplified, analogue filtered (0.5-100 Hz), digitized (500 Hz), and then digitally filtered (EEG: 0.5-100 Hz and EMG: 70-100 Hz). EEG/EMG recordings were semi-automatically scored as wake, non-REM (NREM) sleep, or REM sleep in 10 s epochs using SleepSign. Sleep stages were defined as below: […]

BDNF = assay: In vivo efficacy in wild-type mice, single SC dose: BDNF levels (western blotting); design: species or system mouse; details: single SC dose: LLP11 21 mg/kg, LLP12 26 mg/kg, CLP11 21 mg/kg; 4 and 8 hours
Method: 4 and 8 hour timepoints were chosen.
4-hour timepoint were chosen.

Molecule: CNC1(c2ccccc2Cl)CCCCC1=O (stereo not drawn) [ketamine]
- REM & NREM sleep (Wistar Kyoto rats): at the expense of REM & NREM sleep
- time spent awake (wakefulness) (Wistar Kyoto rats): increased time spent awake

Molecule: LLP12: Linear lipidated peptide K*EQEMTEPVEHEEDV-NH2, * = C18DA-γGlu-OEG-OEG- (K([AEEA-AEEA-γGlu-C18 diacid])EQEMTEPVEHEEDV-NH2; N-terminus assumed; SMILES CSCC[C@H](NC(=O)[C@H](CCC(=O)O)NC(=O)[C@H](CCC(N)=O)NC(=O)[C@H](CCC(=O)O)NC(=O)[C@@H](N)CCCCNC(=O)COCCOCCNC(=O)COCCOCCNC(=O)CC[C@H](NC(=O)CCCCCCCCCCCCCCCCC(=O)O)C(=O)O)C(=O)N[C@H](C(=O)N[C@@H](CCC(=O)O)C(=O)N1CCC[C@H]1C(=O)N[C@H](C(=O)N[C@@H](CCC(=O)O)C(=O)N[C@@H](Cc1c[nH]cn1)C(=O)N[C@@H](CCC(=O)O)C(=O)N[C@@H](CCC(=O)O)C(=O)N[C@@H](CC(=O)O)C(=O)N[C@H](C(N)=O)C(C)C)C(C)C)[C@@H](C)O)
- BDNF levels in vivo (BDNF): increase BDNF in vivo
